Values quoted from earlier work in US12364661B2, “Deformable nano-scale vehicles (DNVS) for trans-blood brain barrier, trans-mucosal, and transdermal drug delivery” (The Regents of the University of California, priority 2015, dated 2025).

Conditions: measured experimentally

## CCCN[C@H]1CCc2nc(N)sc2C1 [Pramipexole, pramipexole]
  log P: 0.4
